Measured values reported in the supplement of paper PMC10307832.

What was measured:
Assay in all cases: relative viability (nuclei count vs DMSO), 5 days (fraction); higher = more cells survive
NCI-H1793 = tested on: NCI-H1793
Procedure, shortened: (§1)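 After 5 days of treatment, lung cancer cells in 1536-well plates were fixed and stained in a single step (final 0.05% Triton X-100, 1% formaldehyde, 1 ug/ml Hoechst) and their nuclei counted on 4× images. Treatment had been applied by pin tool the day after seeding as one drug alone or as a fixed anchor-drug dose with five library-drug doses (not always all listed) in √10 steps. Relative viability is the nuclei count of treated wells divided by that of vehicle wells, and values are medians of duplicate plates.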

A-427 = tested on: A-427
Procedure, shortened: as §1

NCI-H727 = tested on: NCI-H727
Procedure, shortened: as §1

NCI-H596 = tested on: NCI-H596
Procedure, shortened: as §1

H3255 = tested on: H3255
Procedure, shortened: as §1

SW 1573 = tested on: SW 1573
Procedure, shortened: as §1

LC-2-ad = tested on: LC-2-ad
Procedure, shortened: as §1

COR-L23 = tested on: COR-L23
Procedure, shortened: as §1

LK-2 = tested on: LK-2
Procedure, shortened: as §1

LU99A = tested on: LU99A
Procedure, shortened: as §1

NCI-H1563 = tested on: NCI-H1563
Procedure, shortened: as §1

## COc1cc2nccc(Oc3ccc(NC(=O)Nc4cc(C)on4)c(Cl)c3)c2cc1OC [Tivozanib] + COc1cc2c(Oc3ccc(NC(=O)C4(C(=O)Nc5ccc(F)cc5)CC4)cc3F)ccnc2cc1OCCCN1CCOCC1 [Foretinib] (partner 0.25 µM)
NCI-H1793; first compound 0.005 µM
  relative viability: 0.559
NCI-H1793; first compound 0.01581 µM
  relative viability: 0.7
NCI-H1793; first compound 0.05 µM
  relative viability: 0.685
NCI-H1793; first compound 0.1581 µM
  relative viability: 0.479
NCI-H1793; first compound 0.5 µM
  relative viability: 0.776
A-427; first compound 0.005 µM
  relative viability: 1.03
A-427; first compound 0.01581 µM
  relative viability: 1.11
A-427; first compound 0.05 µM
  relative viability: 1.05
A-427; first compound 0.1581 µM
  relative viability: 1.06
A-427; first compound 0.5 µM
  relative viability: 1.02
NCI-H727; first compound 0.005 µM
  relative viability: 0.963
NCI-H727; first compound 0.01581 µM
  relative viability: 1.04
NCI-H727; first compound 0.05 µM
  relative viability: 1.32
NCI-H727; first compound 0.1581 µM
  relative viability: 0.853
NCI-H727; first compound 0.5 µM
  relative viability: 0.89
NCI-H596; first compound 0.005 µM
  relative viability: 0.697
NCI-H596; first compound 0.01581 µM
  relative viability: 0.915
NCI-H596; first compound 0.05 µM
  relative viability: 0.846
NCI-H596; first compound 0.5 µM
  relative viability: 0.879
H3255; first compound 0.005 µM
  relative viability: 0.831
H3255; first compound 0.01581 µM
  relative viability: 0.839
H3255; first compound 0.05 µM
  relative viability: 0.907
H3255; first compound 0.1581 µM
  relative viability: 0.66
H3255; first compound 0.5 µM
  relative viability: 0.735
SW 1573; first compound 0.005 µM
  relative viability: 0.784
SW 1573; first compound 0.01581 µM
  relative viability: 0.828
SW 1573; first compound 0.05 µM
  relative viability: 0.827
SW 1573; first compound 0.1581 µM
  relative viability: 0.886
SW 1573; first compound 0.5 µM
  relative viability: 0.903
LC-2-ad; first compound 0.005 µM
  relative viability: 0.917
LC-2-ad; first compound 0.01581 µM
  relative viability: 1.02
LC-2-ad; first compound 0.05 µM
  relative viability: 0.857
LC-2-ad; first compound 0.1581 µM
  relative viability: 0.972
LC-2-ad; first compound 0.5 µM
  relative viability: 0.788
COR-L23; first compound 0.005 µM
  relative viability: 0.929
COR-L23; first compound 0.01581 µM
  relative viability: 0.943
COR-L23; first compound 0.05 µM
  relative viability: 1.07
COR-L23; first compound 0.1581 µM
  relative viability: 0.976
COR-L23; first compound 0.5 µM
  relative viability: 0.787
LK-2; first compound 0.005 µM
  relative viability: 1.36
LK-2; first compound 0.01581 µM
  relative viability: 1.09
LK-2; first compound 0.05 µM
  relative viability: 1.18
LK-2; first compound 0.1581 µM
  relative viability: 1.1
LK-2; first compound 0.5 µM
  relative viability: 1.02
LU99A; first compound 0.005 µM
  relative viability: 0.663
LU99A; first compound 0.01581 µM
  relative viability: 0.747
LU99A; first compound 0.05 µM
  relative viability: 0.836
LU99A; first compound 0.1581 µM
  relative viability: 0.653
LU99A; first compound 0.5 µM
  relative viability: 0.812
NCI-H1563; first compound 0.005 µM
  relative viability: 0.853
NCI-H1563; first compound 0.01581 µM
  relative viability: 1.01
